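GI50 marks 50% less growth. TGI marks complete inhibition of growth.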
How the values were obtained:
Assay in all cases: growth of human tumour cells (NCI), 384-well format
[1] = tested on: BT-549 breast
[2] = tested on: LOX IMVI melanoma
[3] = tested on: NCI-H522 lung
[4] = tested on: CAKI-1 renal
[5] = tested on: SK-MEL-2 melanoma
[6] = tested on: UACC-257 melanoma
[7] = tested on: SK-MEL-5 melanoma
[8] = tested on: MALME-3M melanoma
[9] = tested on: OVCAR-4 ovarian
[10] = tested on: MOLT-4 leukemia
[11] = tested on: NCI-H322M lung
[12] = tested on: TK-10 renal
[13] = tested on: K-562 leukemia
[14] = tested on: SK-OV-3 ovarian
[15] = tested on: RPMI-8226 leukemia
[16] = tested on: NCI-H226 lung
[17] = tested on: COLO 205 colon
[18] = tested on: SNB-19 CNS
[19] = tested on: SF-295 CNS
[20] = tested on: SF-539 CNS
[21] = tested on: A549 NSCLC
[22] = tested on: UACC-62 melanoma
[23] = tested on: HOP-62 NSCLC
[24] = tested on: MDA-MB-435 melanoma
[25] = tested on: KM12 colon
[26] = tested on: NCI/ADR-RES ovarian
[27] = tested on: DU-145 prostate
[28] = tested on: OVCAR-3 ovarian
[29] = tested on: HCT-15 colon
[30] = tested on: 786-0 renal
[31] = tested on: SK-MEL-28 melanoma
[32] = tested on: PC-3 prostate
[33] = tested on: T-47D breast
[34] = tested on: M14 melanoma
[35] = tested on: SN12C renal
[36] = tested on: HCT-116 colon
[37] = tested on: HT29 colon
[38] = tested on: UO-31 renal
[39] = tested on: SR leukemia
[40] = tested on: OVCAR-5 ovarian
[41] = tested on: RXF 393 renal
[42] = tested on: HL-60(TB) leukemia
[43] = tested on: IGROV1 ovarian
[44] = tested on: HOP-92 NSCLC
[45] = tested on: SW-620 colon
[46] = tested on: MDA-MB-231 breast
[47] = tested on: NCI-H23 lung
[48] = tested on: NCI-H460 NSCLC
[49] = tested on: A498 renal
[50] = tested on: CCRF-CEM leukemia
[51] = tested on: OVCAR-8 ovarian
[52] = tested on: ACHN renal
[53] = tested on: SF-268 CNS
[54] = tested on: MCF7 breast
[55] = tested on: MDA-MB-468 breast
[56] = tested on: HCC-2998 colon
[57] = tested on: U251 glioblastoma

With `C[C@H](c1ccc(Cl)cc1N)N1C(=O)c2cc(I)ccc2N(CCCN2CCN(C)CC2)C(=O)[C@@H]1c1ccc(Cl)cc1` the GI50 [1] was 1.55 µM, the TGI [1] was 2.9 µM and the GI50 [2] was 1.7 µM. For the same molecule, the TGI [2] was 3.09 µM, the GI50 [3] was 1.54 µM and the TGI [3] was 2.88 µM. The GI50 [4] was 0.482 µM, the TGI [4] was 1.78 µM and the GI50 [5] was 1.59 µM. It also gave a TGI [5] of 2.94 µM, a GI50 [6] of 1.22 µM and a TGI [6] of 2.47 µM. It also gave a GI50 [7] of 1.11 µM, a TGI [7] of 2.31 µM and a GI50 [8] of 1.06 µM. The TGI [8] was 2.25 µM, the GI50 [9] was 1.56 µM and the TGI [9] was 2.9 µM. It also gave a GI50 [10] of 0.144 µM, a TGI [10] of 0.279 µM and a GI50 [11] of 1.77 µM. The TGI [11] was 3.17 µM, the GI50 [12] was 1.58 µM and the TGI [12] was 2.92 µM. The GI50 [13] was 1.29 µM, the TGI [13] was 2.58 µM and the GI50 [14] was 1.52 µM. The TGI [14] was 2.85 µM, the GI50 [15] was 0.0209 µM and the TGI [15] was 0.191 µM. The GI50 [16] was 0.649 µM, the TGI [16] was 1.98 µM and the GI50 [17] was 1.64 µM. For the same molecule, the TGI [17] was 3.02 µM, the GI50 [18] was 1.71 µM and the TGI [18] was 3.09 µM. It also gave a GI50 [19] of 1.7 µM, a TGI [19] of 3.08 µM and a GI50 [20] of 1.64 µM. For the same molecule, the TGI [20] was 3.01 µM, the GI50 [21] was 1.06 µM and the TGI [21] was 2.26 µM. The GI50 [22] was 0.591 µM, the TGI [22] was 1.95 µM and the GI50 [23] was 1.62 µM. The TGI [23] was 2.98 µM, the GI50 [24] was 1.71 µM and the TGI [24] was 3.08 µM. The GI50 [25] was 1.56 µM, the TGI [25] was 2.92 µM and the GI50 [26] was 1.59 µM. The TGI [26] was 2.95 µM, the GI50 [27] was 1.76 µM and the TGI [27] was 3.16 µM. For the same molecule, the GI50 [28] was 1.45 µM, the TGI [28] was 2.78 µM and the GI50 [29] was 1.68 µM. For the same molecule, the TGI [29] was 3.06 µM, the GI50 [30] was 1.6 µM and the TGI [30] was 2.96 µM. It also gave a GI50 [31] of 1.59 µM, a TGI [31] of 2.95 µM and a GI50 [32] of 1.66 µM. For the same molecule, the TGI [32] was 3.04 µM, the GI50 [33] was 1.46 µM and the TGI [33] was 2.78 µM. The GI50 [34] was 1.14 µM, the TGI [34] was 2.36 µM and the GI50 [35] was 1.59 µM. The TGI [35] was 2.94 µM, the GI50 [36] was 0.613 µM and the TGI [36] was 1.95 µM. For the same molecule, the GI50 [37] was 1.68 µM, the TGI [37] was 3.08 µM and the GI50 [38] was 1.15 µM. It also gave a TGI [38] of 2.37 µM, a GI50 [39] of 0.144 µM and a TGI [39] of 0.28 µM. It also gave a GI50 [40] of 1.77 µM, a TGI [40] of 3.16 µM and a GI50 [41] of 0.848 µM. It also gave a TGI [41] of 2.12 µM, a GI50 [42] of 0.255 µM and a TGI [42] of 0.641 µM. It also gave a GI50 [43] of 1.21 µM, a TGI [43] of 2.47 µM and a GI50 [44] of 1.13 µM. The TGI [44] was 2.34 µM, the GI50 [45] was 1.78 µM and the TGI [45] was 3.19 µM. It also gave a GI50 [46] of 1.61 µM, a TGI [46] of 2.96 µM and a GI50 [47] of 1.57 µM. For the same molecule, the TGI [47] was 2.92 µM, the GI50 [48] was 0.67 µM and the TGI [48] was 2 µM. For the same molecule, the GI50 [49] was 0.779 µM, the TGI [49] was 2.04 µM and the GI50 [50] was 1.41 µM. It also gave a TGI [50] of 2.72 µM, a GI50 [51] of 1.73 µM and a TGI [51] of 3.12 µM. The GI50 [52] was 0.965 µM, the TGI [52] was 2.16 µM and the GI50 [53] was 1.77 µM. The TGI [53] was 3.16 µM, the GI50 [54] was 1.06 µM and the TGI [54] was 2.26 µM. The GI50 [55] was 1.71 µM, the TGI [55] was 3.09 µM and the GI50 [56] was 1.25 µM. It also gave a TGI [56] of 2.5 µM, a GI50 [57] of 1.64 µM and a TGI [57] of 3.02 µM.
